From patent publication US7521540B2, “CYR61 compositions and methods” (Munin Corporation, priority 1996, dated 2009)

Legend:
[1] = system: 1064SK primary human foreskin fibroblasts; experiment: Fibroblast adhesion assay (methylene blue, A620); assay type: cell-based; conditions: for 1064SK adhesion to Cyr61-coated wells with agent: Cyr61 2 μg/ml, agent at the level stated in the block, Mg2+ 5.0 mM after EDTA; for 1064SK adhesion to Type I collagen-coated wells with agent: Type I collagen 2 μg/ml; for 1064SK adhesion to vitronectin-coated wells with agent: vitronectin 0.5 μg/ml; for concentration that inhibited cell adhesion to Cyr61: in cell suspension
Protocol: The ability of Cyr61 to mediate cell adhesion in normal fibroblasts was investigated. Microtiter wells were coated with purified recombinant Cyr61 protein, and 1064SK primary human foreskin fibroblasts were allowed to adhere under serum-free conditions. […] 50 μl cell suspensions were plated on microtiter wells coated with varying concentrations (0.5-5.0 μg/ml) of Cyr61 protein. After incubation at 37° C. for 30 minutes, adherent cells were fixed and stained with methylene blue.
In another experiment, microtiter wells were coated with either BSA, Cyr61 (2 μg/ml), or vitronectin (VN; 0.5 μg/ml) and blocked with affinity-purified anti-Cyr61 antibodies for one hour at 37° C. before 1064SK cells were plated.
The effects of divalent cations in cell adhesion to Cyr61 was also investigated. […] Data are means from triplicate determinations. […] Inhibition by Ca^2+ is characteristic of adhesion through some members of the β1 family of integrins, including receptors that bind type I collagen, laminin, and vitronectin (integrins α2β1, α6β1, and αVβ1) in fibroblasts, as well as the lymphocyte-specific integrin αLβ2.
The effects of RGD peptides on Cyr61-mediated fibroblast binding was tested by plating cells in wells coated with Cyr61 (2 μg/ml). Type I collagen (2 μg/ml) or vitronectin (0.5 μg/ml), 2 mM GRGDSP or GRGESP peptide was then added.
Cells were also pre-incubated with 40 μg/ml monoclonal antibodies against the integrin α5 or the integrin αV subunits at room temperature for 30 minutes, then plated on wells coated with Cyr61 (2 μg/ml), vitronectin (0.5 μg/ml) or fibronectin (FN, 1 μg/ml). […] The data are means, representative of three experiments.
The 1064 SK cells were also analyzed using the monoclonal antibody JBIA, which binds the β1 integrin subunit. Cells were pre-incubated with the antibody (50 μg/ml) before plating on microtiter wells coated with Cyr61 (2 μg/ml), Type I collagen (2 μg/ml), or vitronectin (0.5 μg/ml). […] Data are means, representative of three experiments.
To identify the specific β1 integrin that mediates fibroblast adhesion to Cyr61, the inhibitory effects of function-blocking monoclonal antibodies were tested against various integrin α subunits. […] The data are means, representative of at least three experiments.

HUVE cells = experiment: HUVE cell attachment to murine Cyr61-coated plates; assay type: cell-based, human; conditions: Cyr61-coated surfaces
Protocol: Another embodiment of the invention is directed to the use of Cyr61 to mediate cellular attachment to the extracellular matrix. Induction of cellular adhesion was investigated using murine Cyr61, fibronectin, and bovine serum albumin (BSA). Immunological 96-well plates (Falcon brand) were coated with 50 μl of 0.1% BSA in PBS at 4° C. in the presence of 0-30 μg/ml concentrations of murine Cyr61 or fibronectin. After two hours exposure to the coating solution, non-diluted immune or pre-immune antisera (30 μl/well), or affinity-purified anti-Cyr61 antibodies were added. For some wells, the coating mixture was adjusted to 10 mM DTT or 100 mM HCl. After 16 hours incubation, the coating solution was removed and the well surface was blocked with 1% BSA in phosphate-buffered saline (PBS) for 1 hour at room temperature. HUVE cells were plated in Ham's complete F12K medium [GIBCO-BRL, Inc.; Ham, Proc. Natl. Acacd. Sci. (USA) 53:786 (1965)] at 5×10^3-10^4 cells/well. Cycloheximide was added to 100 μg/ml immediately before plating and monensin was added to 1 μM 14 hours before plating. After a 2-hour incubation at 37° C., the wells were washed with PBS and attached cells were fixed and stained with methylene blue. The attachment efficiency was determined by quantitative dye extraction and measurement of the extract absorbance at 650 nm. Oliver et al., J. Cell. Sci. 92:513-518 (1989).

platelets = experiment: Platelet adhesion assay; assay type: cell-based, human
Protocol: Microtiter wells were coated with purified recombinant Fisp12/mCTGF or Cyr61, and the adhesion of isolated platelets to these proteins was detected with ^125I-mAb15, an anti-β3 monoclonal antibody (Frelinger et al., J. Biol. Chem 265:6346-6352 [1990]). Platelets were obtained from venous blood drawn from healthy donors and collected into acid-citrate-dextrose (ACD). Washed platelets were prepared by diffenential centrifugation as described (Kinlough-Rathbone et al. Thromb. Haemostas 2:291-308 [1997]), and finally resuspended in HEPES-Tyrode's buffer (5 mM HEPES, pH 7.35, 1 mM MgCl2, 1 mM CaCl2, 135 mM NaCl, 2.7 mM KCl, 11.9 mM NaHCO3, 1 mg/ml dextrose and 3.5 mg/ml BSA). The platelet concentration was adjusted to […].
Microtiter wells (Immulon 2 removawell strips, Dynex Technologies, Inc.) were coated with Cyr61, Fisp12/mCTGF, or fibrinogen (25 μg/ml, 50 μl/well) incubated overnight at 22° C., and then blocked with 3% BSA at 37° C. for 2 hours. Washed platelets were added to the wells (100 μl/well) in the presence and absence of platelet agonists and incubated at 37° C. for 30 minutes. The wells were washed with HEPES-Tyrode's buffer and adherent platelets were detected with ^125I-mAb15, an anti-β3 monoclonal antibody. Exposure to the labeled antibody ([…], 50 μl/well) proceeded for 1 hour at 22° C. After extensive washing with HEPES-Tyrode's buffer, bound radioactivity was determined by γ-counting. In inhibition studies, washed platelets were pre-incubated with blocking peptides or antibodies at 37° C. for 15 minutes prior to addition to microtiter wells.
The anti-β3 antibody was radioiodinated with carrier-free Na^125I (Amersham Corp.) using the IODO-BEADS iodination reagent (Pierce) to a specific activity of approximately 2 μCi/μg. […] As controls, BSA- and fibrinogen-coated (KabiVitrum Inc.) wells were also used. Initially, the adhesion of unactivated versus activated platelets to immobilized Fisp12/mCTGF and Cyr61 was compared. To ensure that plateltes were not activated during the washing procedures, PGl2 (100 nM), which inhibits activation by raising platelet cAMP levels, was added to the platelet suspensions. […]

[2] = system: Human Microvascular Endothelial Cells; experiment: In vitro migration assay for angiogenesis inhibitors; assay type: cell-based; conditions: for migrating cells per set of three high-powered fields, Cyr61 plus compound: Cyr61 1 μg/ml plus 10 mM compound
Protocol: As in the preceding Example, human microvascular endothelial cells (Clonetics) were used. In one series of assays, several carbohydrates and carbohydrate derivatives were analyzed. These compounds included 10 mM mannose, 10 mM mannose-6-phosphate, and 10 mM galactose. […] Cyr61 plus galactose induced the migration of approximately 74 cells per set of three high-powered fields. […] The angiogenic activity of basic FGF (10 ng/ml) was also tested, as described above, with and without mannose-6-phosphate. In the presence of 10 mM mannose-6-phosphate, bFGF induced 51 cells per set of three high-powered fields to migrate; in its absence, bFGF induced the migration of approximately 52 cells. […] The effect of mannose-6-phosphate on IGF II activity was anticipated because mannose-6-phosphate is known to compete with IGF II for their common receptor (the IGF II receptor). […] Moreover, because there is an essentially perfect correlation between the in vitro migration assay and the in vivo angiogenesis assay, described below, mannose-6-phosphate has been identified as an inhibitor of angiogenesis based on the results of the assay disclosed herein. Accordingly, the invention contemplates a method of inhibiting angiogenesis comprising the step of administering an inhibitor the angiogenic activity of Cyr61 such as mannose-6-phosphate. Assays such as that described above may also be used to screen for other inhibitors of angiogenesis which may be useful in the treatment of diseases associated with angiogenesis such as cancer, and diseases of the eye which are accompanied by neovascularization.

For `[Ca+2]` [Ca^2+], the “effect of agent on fibroblast adhesion to Cyr61” value [1] was “abolished cell adhesion to Cyr61 competely”.

In the case of `O=C(O)CN(CCOCCOCCN(CC(=O)O)CC(=O)O)CC(=O)O` [EGTA], the “effect of agent on HUVE cell adhesion to Cyr61” value (HUVE cells) is reported as “completely abolished”.

In the case of `O=S(=O)([O-])[O-].[Mg+2]` [MgSO4, magnesium sulfate], the “effect of agent on fibroblast adhesion to Cyr61” value [1] is reported as “resuced”.

For `[Mg+2]` [Mg^2+], the “effect of agent on fibroblast adhesion to Cyr61” value [1] was “had no effect”, the “1064SK adhesion to Cyr61-coated wells with agent” value [1] was 0.50 A620 and the “1064SK adhesion to Type I collagen-coated wells with agent” value [1] was 0.58 A620. The “1064SK adhesion to vitronectin-coated wells with agent” value [1] was 0.55 A620.

`[Mn+2]` [Mn^2+] was tested, and the “effect of agent on fibroblast adhesion to Cyr61” value [1] was “had no effect”.

With `CCCCC[C@H](O)/C=C/[C@@H]1[C@H]2C/C(=C/CCCC(=O)O)O[C@H]2C[C@H]1O` [PGl2] the “effect of agent on activated platelet adhesion to Cyr61 and Fisp12/mCTGF” value (platelets) was “significantly inhibited”.

For `C[C@@H]1C[C@@H]([C@H](O)CC2CC(=O)NC(=O)C2)C(=O)[C@@H](C)C1` [cycloheximide], the “effect of agent on HUVE cell adhesion to Cyr61” value (HUVE cells) was “insensitive”.

With `O=C[C@H](O)[C@@H](O)[C@@H](O)[C@H](O)CO` [galactose] the “migrating cells per set of three high-powered fields, Cyr61 plus compound” value [2] was “approximately 74 cells”.

With `O=C[C@@H](O)[C@@H](O)[C@H](O)[C@H](O)COP(=O)(O)O` [mannose-6-phosphate] the “migrating cells induced by Cyr61 in presence of compound” value [2] was “approximately 12 cells”, the “migrating cells induced by IGF-II in presence of compound” value [2] was ~11 cells and the “migrating cells per set of three high-powered fields, Cyr61 plus compound” value [2] was “approximately 2 cells”. For the same molecule, the “migrating cells induced by bFGF in presence of compound” value ([2]; bFGF 10 ng/ml, 10 mM compound) was 51 cells.

`CC[C@@]1([C@@H]2O[C@@H]([C@H]3O[C@@](O)(CO)[C@H](C)C[C@@H]3C)C[C@@H]2C)CC[C@H]([C@]2(C)CC[C@]3(C[C@H](O)[C@@H](C)[C@@H]([C@@H](C)[C@@H](OC)[C@H](C)C(=O)O)O3)O2)O1` [monensin] was tested, and the “effect of agent on HUVE cell adhesion to Cyr61” value (HUVE cells) was “insensitive”.

For `[Na+].[O-][Cl+2]([O-])[O-]` [sodium chlorate], the “inhibition of cell adhesion to other substrates” value ([1]; 40 mM, fibronectin, type I collagen, vitronectin, laminin) was 10-20% and the “inhibition of cell adhesion to Cyr61” value ([1]; sodium chlorate 40 mM) was 90%.

In the case of Chondroitin sulfate A [chondroitin A], the “concentration that inhibited cell adhesion to Cyr61” value [1] is reported as 1000 µg/mL.

For “Chondroitin sulfate B (Dermatan sulfate) [chondroitin B]”, the “concentration that inhibited cell adhesion to Cyr61” value [1] was 10 µg/mL.

Chondroitin sulfate C [chondroitin C] was tested, and the “inhibition of adhesion to Cyr61” value ([1]; 0.01-1000 μg/ml) was “failed to inhibit adhesion to Cyr61 at all concentrations tested”.

With GRGDSP the “1064SK adhesion to Cyr61-coated wells with agent” value [1] was ~0.48 A620, the “1064SK adhesion to Type I collagen-coated wells with agent” value [1] was 0.47 A620 and the “1064SK adhesion to vitronectin-coated wells with agent” value [1] was 0.05 A620. The “effect of agent on activated platelet adhesion to Cyr61 and Fisp12/mCTGF” value (platelets) was “specifically inhibited”.

For GRGESP, the “1064SK adhesion to Cyr61-coated wells with agent” value [1] was ~0.46 A620, the “1064SK adhesion to Type I collagen-coated wells with agent” value [1] was 0.49 A620 and the “1064SK adhesion to vitronectin-coated wells with agent” value [1] was 0.41 A620.

In the case of IGF-II: Insulin Growth Factor II, the “migrating cells, chemoattractant without mannose-6-phosphate” value ([2]; bFGF 10 ng/ml, Cyr61, IGF-II) is reported as ~47 cells.

With RGES [reference compound] the “effect of agent on adhesion of ADP-activated platelets to fibrinogen” value (platelets) was “not by RGES or LM609”.

chondroitinase A, B, C was tested, and the “1064SK adhesion to Cyr61-coated wells with agent” value [1] was 0.57 A620, the “1064SK adhesion to fibronectin-coated wells with agent” value ([1]; fibronectin 1 μg/ml) was 0.65 A620 and the “1064SK adhesion to vitronectin-coated wells with agent” value [1] was 0.69 A620.

For heparan sulfate, the “concentration that inhibited cell adhesion to Cyr61” value [1] was 0.1 µg/mL.

For laminin, the “1064SK adhesion to coated protein, nothing added” value ([1]; Cyr61 2, VN 0.5, Type I collagen 2, fibronectin 1, laminin 5 μg/ml) was 0.62 A620.
